Data from PubChem BioAssay (NCI).
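Here, GI50 denotes the concentration required for 50% inhibition of growth. At the TGI there is no net growth.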

What was measured:
Assay in all cases: inhibition of tumour cell growth, NCI panel, 384-well format
MDA-MB-468 breast = system: MDA-MB-468 breast
SN12C renal = system: SN12C renal
IGROV1 ovarian = system: IGROV1 ovarian
KM12 colon = system: KM12 colon
NCI-H226 lung = system: NCI-H226 lung
TK-10 renal = system: TK-10 renal
MDA-MB-435 melanoma = system: MDA-MB-435 melanoma
NCI-H522 lung = system: NCI-H522 lung
SK-MEL-28 melanoma = system: SK-MEL-28 melanoma
SK-MEL-5 melanoma = system: SK-MEL-5 melanoma
U251 glioblastoma = system: U251 glioblastoma
BT-549 breast = system: BT-549 breast
SF-539 CNS = system: SF-539 CNS
OVCAR-3 ovarian = system: OVCAR-3 ovarian
UO-31 renal = system: UO-31 renal
EKVX NSCLC = system: EKVX NSCLC
SF-295 CNS = system: SF-295 CNS
MDA-MB-231 breast = system: MDA-MB-231 breast
COLO 205 colon = system: COLO 205 colon
A498 renal = system: A498 renal
NCI-H23 lung = system: NCI-H23 lung
K-562 leukemia = system: K-562 leukemia
RPMI-8226 leukemia = system: RPMI-8226 leukemia
HL-60(TB) leukemia = system: HL-60(TB) leukemia
SR leukemia = system: SR leukemia
SW-620 colon = system: SW-620 colon
LOX IMVI melanoma = system: LOX IMVI melanoma
HT29 colon = system: HT29 colon
MALME-3M melanoma = system: MALME-3M melanoma

Cn1cncc1[C@@](N)(c1ccc(Cl)cc1)c1ccc2c(c1)c(-c1cccc(Cl)c1)cc(=O)n2C was tested. Which GI50 (MDA-MB-468 breast) did it give?
The GI50 was 23.5 nM.

What about the TGI (MDA-MB-468 breast) of the same molecule?
The TGI was 1830 nM.

What about the GI50 (SN12C renal) of the same molecule?
Its GI50 is 179 nM.

What about the TGI (SN12C renal) of the same molecule?
Its TGI is 5390 nM.

What about the GI50 (IGROV1 ovarian) of the same molecule?
The GI50 was 1560 nM.

And the TGI (IGROV1 ovarian)?
Its TGI is 4990 nM.

And the GI50 (KM12 colon)?
The GI50 was 186 nM.

What about the TGI (KM12 colon) of the same molecule?
Its TGI is 2310 nM.

What about the GI50 (NCI-H226 lung) of the same molecule?
Its GI50 is 1080 nM.

And the TGI (NCI-H226 lung)?
Its TGI is 6960 nM.

And the GI50 (TK-10 renal)?
The GI50 was 1750 nM.

What about the TGI (TK-10 renal) of the same molecule?
The TGI was 6980 nM.

And the GI50 (MDA-MB-435 melanoma)?
The GI50 was 189 nM.

And the TGI (MDA-MB-435 melanoma)?
The TGI was 1510 nM.

What about the GI50 (NCI-H522 lung) of the same molecule?
The GI50 was 1100 nM.

What about the TGI (NCI-H522 lung) of the same molecule?
The TGI was 3850 nM.

What about the GI50 (SK-MEL-28 melanoma) of the same molecule?
The GI50 was 1370 nM.

And the TGI (SK-MEL-28 melanoma)?
The TGI was 6440 nM.

And the GI50 (SK-MEL-5 melanoma)?
Its GI50 is 313 nM.

And the TGI (SK-MEL-5 melanoma)?
The TGI was 2130 nM.

And the GI50 (U251 glioblastoma)?
Its GI50 is 1110 nM.

And the TGI (U251 glioblastoma)?
Its TGI is 12600 nM.

And the GI50 (BT-549 breast)?
The GI50 was 1340 nM.

What about the TGI (BT-549 breast) of the same molecule?
The TGI was 4320 nM.

What about the GI50 (SF-539 CNS) of the same molecule?
The GI50 was 1210 nM.

What about the TGI (SF-539 CNS) of the same molecule?
The TGI was 4330 nM.

What about the GI50 (OVCAR-3 ovarian) of the same molecule?
Its GI50 is 1250 nM.

And the TGI (OVCAR-3 ovarian)?
Its TGI is 3770 nM.

What about the GI50 (UO-31 renal) of the same molecule?
The GI50 was 708 nM.

And the TGI (UO-31 renal)?
Its TGI is 9770 nM.

What about the GI50 (EKVX NSCLC) of the same molecule?
Its GI50 is 1520 nM.

And the TGI (EKVX NSCLC)?
The TGI was 6020 nM.

And the GI50 (SF-295 CNS)?
The GI50 was 463 nM.

And the TGI (SF-295 CNS)?
Its TGI is 2780 nM.

What about the GI50 (MDA-MB-231 breast) of the same molecule?
The GI50 was 1520 nM.

What about the TGI (MDA-MB-231 breast) of the same molecule?
Its TGI is 8300 nM.

What about the GI50 (COLO 205 colon) of the same molecule?
Its GI50 is 1230 nM.

And the TGI (COLO 205 colon)?
The TGI was 3770 nM.

What about the GI50 (A498 renal) of the same molecule?
Its GI50 is 74.6 nM.

And the TGI (A498 renal)?
The TGI was 4040 nM.

And the GI50 (NCI-H23 lung)?
Its GI50 is 1510 nM.

And the TGI (NCI-H23 lung)?
The TGI was 4810 nM.

And the GI50 (K-562 leukemia)?
Its GI50 is 200 nM.

What about the TGI (K-562 leukemia) of the same molecule?
Its TGI is 2050 nM.

What about the GI50 (RPMI-8226 leukemia) of the same molecule?
Its GI50 is 11.1 nM.

What about the TGI (RPMI-8226 leukemia) of the same molecule?
The TGI was 218 nM.

And the GI50 (HL-60(TB) leukemia)?
Its GI50 is under 10 nM.

What about the TGI (HL-60(TB) leukemia) of the same molecule?
Its TGI is 1280 nM.

And the GI50 (SR leukemia)?
The GI50 was 12.9 nM.

What about the TGI (SR leukemia) of the same molecule?
Its TGI is 194 nM.

What about the GI50 (SW-620 colon) of the same molecule?
The GI50 was 1360 nM.

What about the TGI (SW-620 colon) of the same molecule?
The TGI was 4410 nM.

What about the GI50 (LOX IMVI melanoma) of the same molecule?
Its GI50 is 1130 nM.

And the TGI (LOX IMVI melanoma)?
The TGI was 3310 nM.

What about the GI50 (HT29 colon) of the same molecule?
Its GI50 is 1380 nM.

And the TGI (HT29 colon)?
Its TGI is 3620 nM.

And the GI50 (MALME-3M melanoma)?
The GI50 was 141 nM.

And the TGI (MALME-3M melanoma)?
The TGI was 2050 nM.
